From US7776863B2, “Methods of treating HIV infection” (priority 2004, dated 2010)

These compounds were tested on HIV-1 LAI (assay: microbe, parasite or virus in culture). Conditions: Compound 1 + named drug, EC50 ratio 1:1 (Compound 1:comparator); 95% confidence interval in parentheses.
Method: Virus and cell lines. The T-cell lines, MT-2 and PM-1 were obtained through the AIDS Research and Reference Reagent Program, NIAID, and were contributed by Dr. D. Richman and Dr. R. Gallo, respectively. Both cell lines were cultured in RPMI 1640 medium supplemented with 10% fetal bovine serum, 2 mM L-glutamine and sub-cultured twice a week. The LAI strain of HIV-1 was obtained from the Fred Hutchinson Cancer Research Center, and the Bal strain was from NIH. Both virus stocks were amplified and titered in MT-2 cells (LAI) and PM-1 cells (Bal) using a virus infectivity assay.
Drug Susceptibility and Cytotoxicity Assays. For drug susceptibility assays, MT-2 cells were infected with HIV-1 LAI (or PM-1 cells with HIV-1 Bal) at an MOI of 0.005, and seeded into 96-well microtiter plates (0.1×10^6 cells/ml) containing serial dilutions of test compounds. […] Each drug ratio consisted of an array of 3-fold serial dilutions, and was performed in quadruplicate. The plates were incubated at 37° C./5% CO2. The MT-2 cells infected with HIV-1 LAI were incubated for 5 days. On day-five post-infection, 20 μl from each well was harvested and quantitated by a reverse transcriptase (RT) assay, or in samples involving non-nucleoside RT inhibitors, an MTS assay. The PM-1 cells infected with HIV-1 Bal and used for studying the combinations with CCR5 inhibitors were incubated for six days. On day-six post-infection, 20 μl from each well was harvested, 20- and 50-fold diluted and quantitated by p24 assay. Cytotoxicity assays were performed using uninfected cells, exposed to the same drug combinations, and incubated for six days. Cell viability was determined by an MTS assay. The CC50 values were calculated by using the exponential form of the median effect equation as mentioned below for calculation of EC50.
Analysis of Drug Combination Effects. For determination of CI values, drugs were diluted in a fixed ratio and multiple ratios were analyzed. The drug serial dilutions spanned a range of concentrations near the EC50 value of each compound, so that equivalent antiviral activities could be compared. Concentration-response curves were estimated for each individual drug and every combination using the median-effect equation. The equation was fit using a nonlinear regression routine (Proc Nlin) in PC SAS version 8.01 (SAS Institute Inc., SAS Version 8.01, Cary, N.C.: SAS Institute Inc., 1990).
In this equation, Fa stands for “fraction affected,” and represents the fraction of the viral load that has been inactivated. […] ED50 is drug concentration that is expected to reduce the amount of virus by 50%, and m is a parameter that reflects the slope of the concentration-response curve.
To assess antiviral effects of different drug combination treatments, combination indices (CIs) were calculated according to Chou and Rideout. The combination index was computed as CI=[D]1/[Dm]1+[D]2/[Dm]2
In this equation [Dm]1 and [Dm]2 are the concentrations of drugs that would individually produce a specific level of effect, while [D]1 and [D]2 are the concentrations of drugs in combination that would produce the same level of effect.
Theoretically, additivity is implied if the CI is equal to one, synergy if the CI is less than one, and antagonism if the CI is greater than one. […] At best, we can construct a range that contains the likely values for the CI, given the noise in the data. In this report, these ranges are reported in parentheses next to each point estimate of the CI. […] If the range fell entirely above 1.0, we would infer antagonistic behavior. If the range were to include 1.0, we would infer additivity.
In carrying out the combination experiments below, the EC50 for Compound 1 and each comparator compound was determined during the course of each study, and used in the subsequent data analysis.
In the case of `CC(C)Nc1cccnc1N1CCN(C(=O)c2cc3cc(NS(C)(=O)=O)ccc3[nH]2)CC1` [Delavirdine, delavirdine], the “Combination Indices at % HIV Inhibition (Confidence Interval) 50%” value is reported as 0.90 (0.75, 1.06), the “Combination Indices at % HIV Inhibition (Confidence Interval) 75%” value is reported as 0.49 (0.38, 0.61) and the “Combination Indices at % HIV Inhibition (Confidence Interval) 90%” value is reported as 0.28 (0.18, 0.39).
For `Cc1cn([C@H]2C[C@H](N=[N+]=[N-])[C@@H](CO)O2)c(=O)[nH]c1=O` [Zidovudine, zidovudine], the “Combination Indices at % HIV Inhibition (Confidence Interval) 50%” value was 0.25 (0.17, 0.34), the “Combination Indices at % HIV Inhibition (Confidence Interval) 75%” value was 0.53 (0.29, 0.78) and the “Combination Indices at % HIV Inhibition (Confidence Interval) 90%” value was 1.13 (0.24, 2.02).
`CC(C)CN(C[C@@H](O)[C@H](Cc1ccccc1)NC(=O)O[C@H]1CCOC1)S(=O)(=O)c1ccc(N)cc1` [Amprenavir, amprenavir] was tested, and the “Combination Indices at % HIV Inhibition (Confidence Interval) 50%” value was 0.14 (0.11, 0.17), the “Combination Indices at % HIV Inhibition (Confidence Interval) 75%” value was 0.35 (0.26, 0.45) and the “Combination Indices at % HIV Inhibition (Confidence Interval) 90%” value was 0.87 (0.46, 1.28).
In the case of `CC(C)c1nc(CN(C)C(=O)N[C@H](C(=O)N[C@@H](Cc2ccccc2)C[C@H](O)[C@H](Cc2ccccc2)NC(=O)OCc2cncs2)C(C)C)cs1` [Ritonavir, ritonavir], the “Combination Indices at % HIV Inhibition (Confidence Interval) 50%” value is reported as 0.60 (0.49, 0.72), the “Combination Indices at % HIV Inhibition (Confidence Interval) 75%” value is reported as 0.61 (0.45, 0.77) and the “Combination Indices at % HIV Inhibition (Confidence Interval) 90%” value is reported as 0.70 (0.41, 0.99).

Same assay, conditions: Compound 1 + named drug, EC50 ratio 1:2.5 (Compound 1:comparator); 95% confidence interval in parentheses
`CC(C)Nc1cccnc1N1CCN(C(=O)c2cc3cc(NS(C)(=O)=O)ccc3[nH]2)CC1` [Delavirdine, delavirdine] was tested, and the “Combination Indices at % HIV Inhibition (Confidence Interval) 50%” value was 0.57 (0.42, 0.71), the “Combination Indices at % HIV Inhibition (Confidence Interval) 75%” value was 0.55 (0.36, 0.75) and the “Combination Indices at % HIV Inhibition (Confidence Interval) 90%” value was 0.57 (0.26, 0.89).
With `Cc1cn([C@H]2C[C@H](N=[N+]=[N-])[C@@H](CO)O2)c(=O)[nH]c1=O` [Zidovudine, zidovudine] the “Combination Indices at % HIV Inhibition (Confidence Interval) 50%” value was 0.46 (0.36, 0.56), the “Combination Indices at % HIV Inhibition (Confidence Interval) 75%” value was 0.52 (0.36, 0.68) and the “Combination Indices at % HIV Inhibition (Confidence Interval) 90%” value was 0.59 (0.29, 0.89).
For `CC(C)CN(C[C@@H](O)[C@H](Cc1ccccc1)NC(=O)O[C@H]1CCOC1)S(=O)(=O)c1ccc(N)cc1` [Amprenavir, amprenavir], the “Combination Indices at % HIV Inhibition (Confidence Interval) 50%” value was 0.13 (0.09, 0.17), the “Combination Indices at % HIV Inhibition (Confidence Interval) 75%” value was 0.27 (0.17, 0.38) and the “Combination Indices at % HIV Inhibition (Confidence Interval) 90%” value was 0.58 (0.19, 0.97).
With `CC(C)c1nc(CN(C)C(=O)N[C@H](C(=O)N[C@@H](Cc2ccccc2)C[C@H](O)[C@H](Cc2ccccc2)NC(=O)OCc2cncs2)C(C)C)cs1` [Ritonavir, ritonavir] the “Combination Indices at % HIV Inhibition (Confidence Interval) 50%” value was 0.54 (0.45, 0.63), the “Combination Indices at % HIV Inhibition (Confidence Interval) 75%” value was 0.58 (0.44, 0.71) and the “Combination Indices at % HIV Inhibition (Confidence Interval) 90%” value was 0.73 (0.46, 1.00).

Same assay, conditions: Compound 1 + named drug, EC50 ratio 2.5:1 (Compound 1:comparator); 95% confidence interval in parentheses
`CC(C)Nc1cccnc1N1CCN(C(=O)c2cc3cc(NS(C)(=O)=O)ccc3[nH]2)CC1` [Delavirdine, delavirdine] was tested, and the “Combination Indices at % HIV Inhibition (Confidence Interval) 50%” value was 0.64 (0.49, 0.78), the “Combination Indices at % HIV Inhibition (Confidence Interval) 75%” value was 0.46 (0.31, 0.60) and the “Combination Indices at % HIV Inhibition (Confidence Interval) 90%” value was 0.34 (0.17, 0.50).
In the case of `Cc1cn([C@H]2C[C@H](N=[N+]=[N-])[C@@H](CO)O2)c(=O)[nH]c1=O` [Zidovudine, zidovudine], the “Combination Indices at % HIV Inhibition (Confidence Interval) 50%” value is reported as 0.37 (0.28, 0.47), the “Combination Indices at % HIV Inhibition (Confidence Interval) 75%” value is reported as 0.49 (0.32, 0.67) and the “Combination Indices at % HIV Inhibition (Confidence Interval) 90%” value is reported as 0.66 (0.28, 1.05).
For `CC(C)CN(C[C@@H](O)[C@H](Cc1ccccc1)NC(=O)O[C@H]1CCOC1)S(=O)(=O)c1ccc(N)cc1` [Amprenavir, amprenavir], the “Combination Indices at % HIV Inhibition (Confidence Interval) 50%” value was 0.46 (0.32, 0.60), the “Combination Indices at % HIV Inhibition (Confidence Interval) 75%” value was 0.79 (0.46, 1.11) and the “Combination Indices at % HIV Inhibition (Confidence Interval) 90%” value was 1.33 (0.42, 2.25).
In the case of `CC(C)c1nc(CN(C)C(=O)N[C@H](C(=O)N[C@@H](Cc2ccccc2)C[C@H](O)[C@H](Cc2ccccc2)NC(=O)OCc2cncs2)C(C)C)cs1` [Ritonavir, ritonavir], the “Combination Indices at % HIV Inhibition (Confidence Interval) 50%” value is reported as 0.23 (0.20, 0.26), the “Combination Indices at % HIV Inhibition (Confidence Interval) 75%” value is reported as 0.20 (0.17, 0.24) and the “Combination Indices at % HIV Inhibition (Confidence Interval) 90%” value is reported as 0.19 (0.14, 0.24).

Same assay, conditions: Compound 1 + named drug, all ratios; MT-2 cells, HIV-1 LAI
With `CC(C)Nc1cccnc1N1CCN(C(=O)c2cc3cc(NS(C)(=O)=O)ccc3[nH]2)CC1` [Delavirdine, delavirdine] the “Overall Result (combined anti-HIV effect)” value (“Overall Result” below) was “Synergistic”.
For `Cc1cn([C@H]2C[C@H](N=[N+]=[N-])[C@@H](CO)O2)c(=O)[nH]c1=O` [Zidovudine, zidovudine], the “Overall Result” value was “Additive-”.
For `CC(C)CN(C[C@@H](O)[C@H](Cc1ccccc1)NC(=O)O[C@H]1CCOC1)S(=O)(=O)c1ccc(N)cc1` [Amprenavir, amprenavir], the “Overall Result” value was “Additive-”.
In the case of `CC(C)c1nc(CN(C)C(=O)N[C@H](C(=O)N[C@@H](Cc2ccccc2)C[C@H](O)[C@H](Cc2ccccc2)NC(=O)OCc2cncs2)C(C)C)cs1` [Ritonavir, ritonavir], the “Overall Result” value is reported as “Synergistic”.

Same assay, conditions: Compound 1 + named drug, all ratios; MT-2 cells, HIV-1 LAI; listed as delavirdine
For `CC(C)Nc1cccnc1N1CCN(C(=O)c2cc3cc(NS(C)(=O)=O)ccc3[nH]2)CC1` [Delavirdine, delavirdine], the “Overall Result” value was “synergistic”.

Same assay, conditions: Human immunodeficiency virus 1, MT2, 120 h
`CC(C)Nc1cccnc1N1CCN(C(=O)c2cc3cc(NS(C)(=O)=O)ccc3[nH]2)CC1` [Delavirdine, delavirdine] showed an EC50 of 25 nM.
For `Cc1cn([C@H]2C[C@H](N=[N+]=[N-])[C@@H](CO)O2)c(=O)[nH]c1=O` [Zidovudine, zidovudine], the EC50 was 1 nM.
`CC(C)CN(C[C@@H](O)[C@H](Cc1ccccc1)NC(=O)O[C@H]1CCOC1)S(=O)(=O)c1ccc(N)cc1` [Amprenavir, amprenavir] showed an EC50 of 11 nM.
`CC(C)c1nc(CN(C)C(=O)N[C@H](C(=O)N[C@@H](Cc2ccccc2)C[C@H](O)[C@H](Cc2ccccc2)NC(=O)OCc2cncs2)C(C)C)cs1` [Ritonavir, ritonavir] gave an EC50 of 7 nM.
